This note sets out measurements from PubChem BioAssay AID264 (DTP/NCI, 2004).

Several values for one entry are separate records, joined by “and”; a condition that tells them apart may be missing. Equal values may be shown once. Results filed as inconclusive are left out.

The subject of the assay is nude mice, LX-1 lung xenograft intrarenal, tumor weight T/C. Kind of assay: NCI In Vivo Anticancer Drug Screen. Data for tumor model Human Lung LX-1 Xenograft (intrarenal inoculation) in NU/NU Swiss (nude) mice. Particulars: endpoint: mean tumor weight change, higher = larger tumour. How it is done: The antitumor activity of compounds was measured in mice bearing transplantable tumors. Survival or tumor size were measured and the results are expressed as the measurement made in the treated group (T) divided by the measurement made in the vehicle treated control group (C). The tumor model used in this assay is Human Lung LX-1 Xenograft (intrarenal inoculation) in NU/NU Swiss (nude) mice
In general terms: Xenograft models place foreign cells or tissue in a host animal.

Where [1] appears, read: dose: 300.0 mg/kg/injection, schedule: Q04DX003 (sc), vehicle: suspension in saline.
Where [2] appears, read: dose: 600.0 mg/kg/injection, schedule: Q04DX003 (sc), vehicle: suspension in saline.
Setting [3] is: dose: 1200.0 mg/kg/injection, schedule: Q04DX003 (sc), vehicle: suspension in saline.
Setting [4] is: dose: 12.5 mg/kg/injection, schedule: Q04DX003 (sc), vehicle: saline with Tween-80.
The mark [5] stands for this setting: dose: 25.0 mg/kg/injection, schedule: Q04DX003 (sc), vehicle: saline with Tween-80.
[6] abbreviates: dose: 300.0 mg/kg/injection, schedule: Q04DX003 (sc), vehicle: saline with Tween-80.
The mark [7] stands for this setting: dose: 1200.0 mg/kg/injection, schedule: Q04DX003 (sc), vehicle: saline with Tween-80.
Where [8] appears, read: dose: 50.0 mg/kg/injection, schedule: Q01DX010 (sc), vehicle: saline with Tween-80.

As to `COc1ccc2c(NCCCCCCNc3c4ccccc4nc4cc(OC)ccc34)c3ccccc3nc2c1`, the T/C is, setting by setting: (dose: 1.25 mg/kg/injection, schedule: Q01DX010 (sc), vehicle: lactic acid) 105 % of control; (dose: 2.5 mg/kg/injection, schedule: Q01DX010 (sc), vehicle: lactic acid) 100 % of control; (dose: 10.0 mg/kg/injection, schedule: Q01DX010 (sc), vehicle: lactic acid) 48 % of control.

For the molecule `COc1cc2cc3cc4cc(OC)c(OC)cc4c(C)[n+]3cc2cc1OC` (tested in a mixture with another compound), the T/C is 105 % of control under setting [1]; 71 % of control under setting [2]; 71 % of control under setting [3]; 53 % of control (dose: 2400.0 mg/kg/injection, schedule: Q04DX003 (sc), vehicle: suspension in saline).

With `COc1cc2c(c(OC)c1OC)-c1ccc(OC)c(=O)cc1[C@@H](NC(=O)CCl)CC2`, the T/C (dose: 1.25 mg/kg/injection, schedule: Q04DX003 (sc), vehicle: saline with Tween-80) was 76 % of control; the T/C (dose: 2.5 mg/kg/injection, schedule: Q04DX003 (sc), vehicle: saline with Tween-80) is 77 % of control; the T/C (dose: 5.0 mg/kg/injection, schedule: Q04DX003 (sc), vehicle: saline with Tween-80) was 42 % of control.

Regarding `C=C1C(=O)C2=CC1CCC(=O)C1(C)CCC(OC(C)=O)C(C)(C)C1CC2O` (stereo unspecified), the T/C (dose: 60.0 mg/kg/injection, schedule: Q04DX003 (sc), vehicle: Klucel (hydroxypropylcellulose) (HPC)) was 121 % of control and the T/C (dose: 120.0 mg/kg/injection, schedule: Q04DX003 (sc), vehicle: Klucel (hydroxypropylcellulose) (HPC)) was 57 % of control.

With `O=NN(CCCl)C(=O)NCCCl`, the T/C is 44 % of control and 51 % of control and 65 % of control (dose: 4.0 mg/kg/injection, schedule: Q01DX010 (sc), vehicle: saline); 90 % of control (dose: 7.5 mg/kg/injection, schedule: Q04DX003 (sc), vehicle: suspension in saline); 16 % of control and 17 % of control (dose: 8.0 mg/kg/injection, schedule: Q01DX010 (sc), vehicle: saline); 9 % of control (dose: 13.33 mg/kg/injection, schedule: Q04DX003 (sc), vehicle: saline); 31 % of control (dose: 15.0 mg/kg/injection, schedule: Q04DX003 (sc), vehicle: suspension in saline); -75 % of control and -72 % of control and -67 % of control (dose: 16.0 mg/kg/injection, schedule: Q01DX010 (sc), vehicle: saline). In addition, the T/C is -32 % of control (dose: 26.65 mg/kg/injection, schedule: Q04DX003 (sc), vehicle: saline); 1 % of control (dose: 30.0 mg/kg/injection, schedule: Q04DX003 (sc), vehicle: suspension in saline); -9 % of control and -3 % of control (dose: 32.0 mg/kg/injection, schedule: Q01DX010 (sc), vehicle: saline); -84 % of control (dose: 53.3 mg/kg/injection, schedule: Q04DX003 (sc), vehicle: saline); 16 % of control (dose: 60.0 mg/kg/injection, schedule: Q04DX003 (sc), vehicle: suspension in saline).

`O=c1ssc(=Nc2ccccc2)n1-c1ccccc1`: the T/C reads like this: (dose: 100.0 mg/kg/injection, schedule: Q01DX010 (sc), vehicle: Klucel (hydroxypropylcellulose) (HPC)) 77 % of control; (dose: 400.0 mg/kg/injection, schedule: Q01DX010 (sc), vehicle: Klucel (hydroxypropylcellulose) (HPC)) 97 % of control.

As for `C[CH2][Sn]([CH2]C)([O]S(C)(=O)=O)[O]S(C)(=O)=O`, the T/C reads like this: (dose: 3.13 mg/kg/injection, schedule: Q04DX003 (sc), vehicle: saline with Tween-80) 107 % of control; (dose: 6.25 mg/kg/injection, schedule: Q04DX003 (sc), vehicle: saline with Tween-80) 109 % of control; under setting [4], 102 % of control; under setting [5], 99 % of control.

On to `C[C@]12CC[C@H](O)CC1=CC[C@@H]1[C@@H]2CC[C@]2(C)C(=O)CC[C@@H]12`, for which the T/C is, setting by setting: (dose: 150.0 mg/kg/injection, schedule: Q04DX003 (sc), vehicle: saline with Tween-80) 116 % of control; under setting [6], 115 % of control; under setting [7], 107 % of control.

`C[Si](C)(C)OSc1ccccc1[N+](=O)[O-]`: the T/C is 150 % of control (dose: 300.0 mg/kg/injection, schedule: Q04DX003 (sc), vehicle: Klucel (hydroxypropylcellulose) (HPC)); 151 % of control (dose: 600.0 mg/kg/injection, schedule: Q04DX003 (sc), vehicle: Klucel (hydroxypropylcellulose) (HPC)); 123 % of control (dose: 2400.0 mg/kg/injection, schedule: Q04DX003 (sc), vehicle: Klucel (hydroxypropylcellulose) (HPC)).

As for `C[n+]1cccc(NC(=O)c2ccc(NC(=O)C34CCC(C(=O)Nc5ccc(C(=O)Nc6ccc[n+](C)c6)cc5)(CC3)CC4)cc2)c1`, the T/C reads like this: under setting [4], 103 % of control; under setting [5], 76 % of control; (dose: 50.0 mg/kg/injection, schedule: Q04DX003 (sc), vehicle: saline with Tween-80) 53 % of control.

Regarding `COc1cccc2c1C(=O)c1c(O)c3c(c(O)c1C2=O)C[C@@](O)(C(=O)CO)C[C@@H]3OC1CC(N)C(O)C(C)O1` (stereo partly specified), the T/C reads like this: (dose: 4.0 mg/kg/injection, schedule: Q04DX003 (sc), vehicle: water) 45 % of control and 53 % of control; (dose: 4.5 mg/kg/injection, schedule: Q04DX003 (sc), vehicle: saline) 72 % of control; (dose: 9.0 mg/kg/injection, schedule: Q04DX003 (sc), vehicle: saline) 44 % of control.

As for `N=C(N)SCc1cccc2c(=O)cc(-c3ccccc3)oc12`, the T/C under setting [1] was 51 % of control, the T/C under setting [2] was 39 % of control and the T/C under setting [3] was 63 % of control.

As for `c1ccc2c(c1)nnn1c3cnccc3nc21`, the T/C is 59 % of control (dose: 3.12 mg/kg/injection, schedule: Q01DX010 (sc), vehicle: saline with Tween-80); 187 % of control (dose: 6.25 mg/kg/injection, schedule: Q01DX010 (sc), vehicle: saline with Tween-80); 72 % of control (dose: 12.5 mg/kg/injection, schedule: Q01DX010 (sc), vehicle: saline with Tween-80); 107 % of control (dose: 25.0 mg/kg/injection, schedule: Q01DX010 (sc), vehicle: saline with Tween-80); 160 % of control under setting [8]; 210 % of control (dose: 100.0 mg/kg/injection, schedule: Q01DX010 (sc), vehicle: saline with Tween-80).

As to `CCC1=C[C@H]2CN(CCc3c([nH]c4ccccc34)[C@@](C(=O)OC)(c3cc4c(cc3OC)N(C)[C@H]3[C@@](O)(C(=O)OC)[C@H](OC(C)=O)[C@]5(CC)C=CCN6CC[C@]43[C@@H]65)C2)C1`, the T/C (dose: 6.0 mg/kg/injection, schedule: Q04DX003 (sc), vehicle: water) is 106 % of control and the T/C (dose: 12.0 mg/kg/injection, schedule: Q04DX003 (sc), vehicle: water) is 89 % of control.

As for `CC(=O)Oc1ccccc1O`, the T/C reads like this: (dose: 150.0 mg/kg/injection, schedule: Q04DX003 (sc), vehicle: saline + Tween-80 + alcohol) 105 % of control; (dose: 300.0 mg/kg/injection, schedule: Q04DX003 (sc), vehicle: saline + Tween-80 + alcohol) 101 % of control; (dose: 600.0 mg/kg/injection, schedule: Q04DX003 (sc), vehicle: saline + Tween-80 + alcohol) 89 % of control; (dose: 1200.0 mg/kg/injection, schedule: Q04DX003 (sc), vehicle: saline + Tween-80 + alcohol) 82 % of control.

As for `ClC(Cl)(Cl)C1=NCc2nnn(Cc3ccccc3)c2N1`, the T/C under setting [6] is 72 % of control; the T/C (dose: 600.0 mg/kg/injection, schedule: Q04DX003 (sc), vehicle: saline with Tween-80) is 67 % of control; the T/C under setting [7] is 90 % of control; the T/C (dose: 2400.0 mg/kg/injection, schedule: Q04DX003 (sc), vehicle: saline with Tween-80) is 36 % of control.

On to `OCCN1CCN(CCCN2c3ccccc3Sc3ccc(C(F)(F)F)cc32)CC1`, for which the T/C is, setting by setting: (dose: 20.0 mg/kg/injection, schedule: Q01DX010 (sc), vehicle: saline) 69 % of control; (dose: 40.0 mg/kg/injection, schedule: Q01DX010 (sc), vehicle: saline) 75 % of control.

On to `COc1nc(=O)n(C2C=CC(=O)O2)cc1F` (stereo unspecified), for which the T/C is 66 % of control (dose: 25.0 mg/kg/injection, schedule: Q04DX003 (sc), vehicle: Klucel (hydroxypropylcellulose) (HPC)); 54 % of control (dose: 50.0 mg/kg/injection, schedule: Q04DX003 (sc), vehicle: Klucel (hydroxypropylcellulose) (HPC)); 37 % of control (dose: 100.0 mg/kg/injection, schedule: Q04DX003 (sc), vehicle: Klucel (hydroxypropylcellulose) (HPC)).

As for `Cc1ncc([N+](=O)[O-])n1CCSC(N)=O`, the T/C under setting [8] is 90 % of control.
